Data published in patent US20250188110A1, “SPECIFIC SMALL MOLECULE INHIBITORS THAT BLOCK KMT9 METHYLTRANSFERASE ACTIVITY AND FUNCTION” (ALBERT-LUDWIGS-UNIVERSITÄT FREIBURG, priority 2021, published 2025).
Read-outs that look alike come from different tables or passages of the source.

Columns and labels:
KMT9 [1] = molecular target: T1, KMT9 (Homo sapiens, UniProt Q9Y5N5); test: Microscale thermophoresis (MST) KMT9 binding
T1 sequence (Q9Y5N5 1-214): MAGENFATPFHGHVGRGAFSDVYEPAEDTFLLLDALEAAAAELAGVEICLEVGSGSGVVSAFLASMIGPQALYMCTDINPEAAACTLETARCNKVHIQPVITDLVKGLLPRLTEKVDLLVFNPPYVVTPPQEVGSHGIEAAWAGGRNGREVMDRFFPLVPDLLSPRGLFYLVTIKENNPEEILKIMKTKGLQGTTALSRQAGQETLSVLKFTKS
T1 sequence (Q9UI30 1-120 isoform Q9UI30-2 partner): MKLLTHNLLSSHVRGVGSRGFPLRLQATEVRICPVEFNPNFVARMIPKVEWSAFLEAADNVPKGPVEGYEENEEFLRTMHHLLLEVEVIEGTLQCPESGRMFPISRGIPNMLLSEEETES
Outline: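 Kd from microscale thermophoresis: compound series against 20 nM His-KMT9 labelled via RED-Tris-NTA, buffer 25 mM HEPES (pH 7.5)/100 mM NaCl/1 mM DTT/0.05% Tween, 40% MST power, 100% LED. Reported as classes: A ≤10 nM, B >10–100 nM, C >100–1000 nM, D >1000 nM.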

KMT9 [2] = molecular target: T1, KMT9; test: KMT9 methyltransferase inhibition assay, MTaseGlo luminescence (from entry 155); format: biochemical; settings: 100 nM KMT9, 5 μM ETF1, 1 μM SAM
Outline: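 KMT9 (100 nM final) pre-incubated with inhibitor for 15 min at room temperature, then reacted with 5 μM ETF1 and 1 μM SAM for 2 h at 30° C. at 2% DMSO final. MTaseGlo luminescence read after 60 min detection; IC50 reported in four potency bins.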

KMT9 [3] = molecular target: T1, KMT9; test: KMT9 thermal shift assay (SyproOrange); format: binding
Outline: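 ΔTm versus DMSO-only control is reported in bins (>20 K, 15–20 K, 10–15 K, ≤10 K), using Tm from Boltzmann sigmoidal fits of SyproOrange melt curves. KMT9 with compound in pH 8.5 BTP buffer containing MgCl2 and DTT was preincubated at 25° C, then ramped 1° C per 15 s up to 95° C.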

[4] = His-tag labelled KMT9 20 nM, Kd class, read-out: MST
[5] = IC50 class, MTaseGlo procedure (entries from 155 on), read-out: Inhibition
[6] = ΔTm class, 500 uM compound, 2 μM KMT9, read-out: Thermal shift
[7] = microscale thermophoresis, His-tag labelled KMT9 (20 nM), read-out: MST
[8] = from entry 155: MTaseGlo assay, read-out: Inhibition
[9] = ΔTm, 500 µM compound, 2 μM KMT9, 5X SO, read-out: Thermal shift
[10] = His-tag labelled KMT9 20 nM, read-out: MST (Kd)
[11] = MTaseGlo procedure (entries from 155), read-out: Inhibition (IC50)
[12] = 500 µM compound, 2 μM KMT9, read-out: Thermal shift (ΔTm)

Compound	Kd (KMT9 [1]; [7]) [nM]	IC50 (KMT9 [2]; [8]) [nM]	ΔTm at 500 µM (KMT9 [3]; [9]) [°C]	further results
CN(CCCNCCc1ccccc1)C[C@H]1C[C@@H](n2cc(-c3cc(Cc4ccccc4)cs3)c3cncnc32)[C@H](O)[C@@H]1O [Compound 620, (1R,2S,3R,5R)-3-[5-(4-Benzylthiophen-2-yl)pyrrolo[2,3-d]pyrimidin-7-yl]-5-{[methyl({3-[(2-phenylethyl)amino]propyl})amino]methyl}cyclopentane-1,2-diol]				Kd (KMT9 [1]; [4]): 100 to 1000 nM; IC50 (KMT9 [2]; [5]): 1000 to 10000 nM; ΔTm at 500 µM (KMT9 [3]; [6]): 10 to 15 °C
O[C@@H]1[C@@H](CNCCCNCCc2ccccc2)C[C@@H](n2cc(-c3cc(Cc4ccccc4)cs3)c3cnc(Cl)nc32)[C@@H]1O [Compound 621, (1R,2S,3R,5R)-3-[5-(4-Benzylthiophen-2-yl)-2-chloropyrrolo[2,3-d]pyrimidin-7-yl]-5-[{{3-[(2-phenylethyl)amino]propyl}amino)methyl]cyclopentane-1,2-diol]	100 to 1000	1000 to 10000	15 to 20	
CS(=O)(=O)n1ccc(-c2cn([C@@H]3C[C@H](CNCCCNCCc4ccccc4)[C@@H](O)[C@H]3O)c3nc(Cl)ncc23)n1 [Compound 622, (1R,2S,3R,5R)-3-(2-Chloro-5-(1-(methylsulfonyl)-1H-pyrazol-3-yl)-7H-pyrrolo[2,3-d]pyrimidin-7-yl)-5-(((3-(phenethylamino)propyl)amino)methyl)cyclopentane-1,2-diol]				Kd (KMT9 [1]; [4]): 100 to 1000 nM; IC50 (KMT9 [2]; [5]): 100 to 1000 nM; ΔTm at 500 µM (KMT9 [3]; [6]): 15 to 20 °C
O[C@@H]1[C@@H](CNCCCNCCc2ccccc2)C[C@@H](n2cc3c4c(ncnc42)NCCC3)[C@@H]1O [Compound 628, (1S,2R,3R,5R)-3-(((3-(Phenethylamino)propyl)amino)methyl)-5-(6,7,8,9-tetrahydro-2H-2,3,5,6-tetraazabenzo[cd]azulen-2-yl)cyclopentane-1,2-diol]	100 to 1000	1000 to 10000	10 to 15	
O[C@@H]1[C@@H](CNCCCNCCc2ccccc2)C[C@@H](n2cc3c4c(ncnc42)NCCCC3)[C@@H]1O [Compound 631, (1S,2R,3R,5R)-3-(((3-(phenethylamino)propyl)amino)methyl)-5-(7,8,9,10-tetrahydro-2,3,5,6-tetraazacycloocta [cd]inden-2 (6H)-yl)cyclopentane-1,2-diol]	10 to 100	1000 to 10000	10 to 15	
O[C@@H]1[C@@H](CNCCCNCCc2ccccc2)C[C@@H](n2cc(-c3nc(Cc4ccccc4)cs3)c3cnc(Cl)nc32)[C@@H]1O [Compound 634, (1R,2S,3R,5R)-3-(5-(4-Benzylthiazol-2-yl)-2-chloro-7H-pyrrolo[2,3-d]pyrimidin-7-yl)-5-(((3-(phenethylamino)propyl)amino)methyl)cyclopentane-1,2-diol]	10 to 100	1000 to 10000	15 to 20	
Nc1nc(Cl)nc2c1c(-c1nc(Cc3ccccc3)cs1)cn2[C@@H]1C[C@H](CNCCCNCCc2ccccc2)[C@@H](O)[C@H]1O [Compound 635, (1R,2S,3R,5R)-3-(4-Amino-5-(4-benzylthiazol-2-yl)-2-chloro-7H-pyrrolo[2,3-d]pyrimidin-7-yl)-5-(((3-(phenethylamino)propyl)amino)methyl)cyclopentane-1,2-diol]	100 to 1000	100 to 1000	15 to 20	
Nc1nc(Cl)nc2c1c(-c1ccn(Cc3ccccc3)n1)cn2[C@@H]1C[C@H](CNCCCNCCc2ccccc2)[C@@H](O)[C@H]1O [Compound 636, (1R,2S,3R,5R)-3-(4-Amino-5-(1-benzyl-1H-pyrazol-3-yl)-2-chloro-7H-pyrrolo[2,3-d]pyrimidin-7-yl)-5-(((3-(phenethylamino)propyl)amino)methyl)cyclopentane-1,2-diol]	≤ 10	100 to 1000	> 20	
O[C@@H]1[C@@H](CNCCCNCCc2ccccc2)C[C@@H](n2cc(-c3cc(Cc4ccccc4)cs3)c3cncnc32)[C@@H]1O [Compound 637, (1R,2S,3R,5R)-3-(5-(4-benzylthiophen-2-yl)-7H-pyrrolo[2,3-d]pyrimidin-7-yl)-5-(((3-(phenethylamino)propyl)amino)methyl)cyclopentane-1,2-diol]	> 1000	1000 to 10000	10 to 15	
O[C@@H]1[C@@H](CNCCCNCCc2ccccc2)C[C@@H](n2cc(-c3nccs3)c3cnc(Cl)nc32)[C@@H]1O [Compound 638, (1R,2S,3R,5R)-3-(2-Chloro-5-(thiazol-2-yl)-7H-pyrrolo[2,3-d]pyrimidin-7-yl)-5-(((3-(phenethylamino)propyl)amino)methyl)cyclopentane-1,2-diol]	100 to 1000	1000 to 10000	15 to 20	
O[C@@H]1[C@@H](CNCCCNCCc2ccccc2)C[C@@H](n2cc(-c3nc(Oc4ccccc4)cs3)c3cncnc32)[C@@H]1O [Compound 639, (1S,2R,3R,5R)-3-(((3-(Phenethylamino)propyl)amino)methyl)-5-(5-(4-phenoxythiazol-2-yl)-7H-pyrrolo[2,3-d]pyrimidin-7-yl)cyclopentane-1,2-diol]	> 1000	1000 to 10000	10 to 15	
CS(=O)(=O)n1ccc(-c2cn([C@@H]3C[C@H](CNCCCNCCc4ccccc4)[C@@H](O)[C@H]3O)c3ncncc23)n1 [Compound 640, (1R,2S,3R,5R)-3-(5-(1-(Methylsulfonyl)-1H-pyrazol-3-yl)-7H-pyrrolo[2,3-d]pyrimidin-7-yl)-5-(((3-(phenethylamino)propyl)amino)methyl)cyclopentane-1,2-diol]	> 1000	1000 to 10000	10 to 15	
O[C@@H]1[C@@H](CN(CCCNCCc2ccccc2)c2cn[nH]c2)C[C@@H](n2cc(-c3cccs3)c3cnc(Cl)nc32)[C@@H]1O [Compound 641, (1R,2S,3R,5R)-3-(2-Chloro-5-(thiophen-2-yl)-7H-pyrrolo[2,3-d]pyrimidin-7-yl)-5-(((3-(phenethylamino)propyl)(1H-pyrazol-4-yl)amino)methyl)cyclopentane-1,2-diol]				Kd (KMT9 [1]; [4]): ≤ 10 nM; IC50 (KMT9 [2]; [5]): 100 to 1000 nM; ΔTm at 500 µM (KMT9 [3]; [6]): 15 to 20 °C
CN(CCCNCCc1ccc(F)cc1)C[C@H]1C[C@@H](n2cc(-c3ccn(Cc4ccccc4)n3)c3cnc(Cl)nc32)[C@H](O)[C@@H]1O [Compound 642, (1R,2S,3R,5R)-3-[5-(1-Benzylpyrazol-3-yl)-2-chloropyrrolo[2,3-d]pyrimidin-7-yl]-5-{[(3-{[2-(4-fluorophenyl)ethyl]amino}propyl)(methyl)amino]methyl}cyclopentane-1,2-diol]				Kd (KMT9 [1]; [4]): 10 to 100 nM; IC50 (KMT9 [2]; [5]): 1000 to 10000 nM; ΔTm at 500 µM (KMT9 [3]; [6]): 15 to 20 °C
CN(CCCNCCc1ccc(F)cc1)C[C@H]1C[C@@H](n2cc(-c3ccn(Cc4ccccc4)n3)c3c(N)nc(Cl)nc32)[C@H](O)[C@@H]1O [Compound 643, (1R,2S,3R,5R)-3-[4-Amino-5-(1-benzylpyrazol-3-yl)-2-chloropyrrolo[2,3-d]pyrimidin-7-yl]-5-{[(3-{[2-(4-fluorophenyl)ethyl]amino}propyl)(methyl)amino]methyl}cyclopentane-1,2-diol]				Kd (KMT9 [1]; [10]): ≤ 10 nM; IC50 (KMT9 [2]; [11]): 100 to 1000 nM; ΔTm at 500 µM (KMT9 [3]; [12]): > 20 °C
CN(CCCNCCc1ccc(F)cc1)C[C@H]1C[C@@H](n2cc(-c3ccn(C)n3)c3cnc(Cl)nc32)[C@H](O)[C@@H]1O [Compound 644, (1R,2S,3R,5R)-3-[2-Chloro-5-(1-methylpyrazol-3-yl)pyrrolo[2,3-d]pyrimidin-7-yl]-5-{[(3-{[2-(4-fluorophenyl)ethyl]amino}propyl)(methyl)amino]methyl}cyclopentane-1,2-diol]				Kd (KMT9 [1]; [4]): > 1000 nM; IC50 (KMT9 [2]; [5]): > 10000 nM; ΔTm at 500 µM (KMT9 [3]; [6]): ≤ 10 °C
CN(CCCNCCc1ccc(F)cc1)C[C@H]1C[C@@H](n2cc(-c3ccn(C)n3)c3c(N)nc(Cl)nc32)[C@H](O)[C@@H]1O [Compound 645, (1R,2S,3R,5R)-3-[4-Amino-2-chloro-5-(1-methylpyrazol-3-yl)pyrrolo[2,3-d]pyrimidin-7-yl]-5-{[(3-{[2-(4-fluorophenyl)ethyl]amino}propyl)(methyl)amino]methyl}cyclopentane-1,2-diol]				Kd (KMT9 [1]; [10]): 10 to 100 nM; IC50 (KMT9 [2]; [11]): 100 to 1000 nM; ΔTm at 500 µM (KMT9 [3]; [12]): > 20 °C
